Data from US9796706B2, “Inhibitors of Jun N-terminal kinase” (IMAGO PHARMACEUTICALS, INC., priority 2009, dated 2017).

Columns and labels:
Type in all cases: biochemical
Conditions in all cases: procedures of Example 14 (TR-FRET)
JNK3 = JNK3 (Homo sapiens (Human), UniProt P53779); assay: JNK3 TR-FRET kinase assay (Example 14)
Method: (§1) 14.3. Active JNK 1, 2 and 3 TR-FRET Assay
(§2) (1) Assay buffer #1 with 0.0025% Tween and 1 mM DTT was prepared using JNK buffer stock solution.
(§3) (2) Assay buffer #2 with 0.025% BSA was prepared using the assay buffer #1.
(§4) (3) Test compound solution preparation: 5× compound solution was prepared using assay buffer #1 with 5% DMSO. The compound solution (10 μl/well) was added to a 384-well plate (Corning, Cat No. 3654).
(§5) (4) aJNK1, 2 or 3 preparation: aJNK stock (100 μg/ml) at −80° C. was thawed on ice and an aJNK (1.6 ng/ml) solution was prepared using assay buffer #2. The aJNK solution (20 μl/well) was added to the plate and the plate was shaken. The enzyme was incubated with the compound at RT for 10 min. (5) ATP/substrate solution preparation: ATP and substrate stocks were thawed on ice. 2.5×ATP/substrate (e.g., 25 μM or 2.5 mM ATP/50 nM EPIW-1) was prepared using assay buffer #1. The ATP/substrate (20 μl/well) was added to the plate and the plate was shaken. The plate was incubated at RT for 15 min. Note: In an exemplary assay, the final ATP concentration was about 1 mM. (6) EDTA preparation: 30 mM EDTA was prepared using 0.5M EDTA stock and assay buffer #1. The EDTA (10 μl/well) was added to the plate to quench the enzyme reaction and the plate was shaken well. (7) Detection reagent preparation: Eu-63 and SA-XL stocks were thawed on ice. 4× Eu-63/SA-XL (2 nM Eu-63/9.4 nM SA-XL) was prepared using JNK detection buffer. The Eu-63/SA-XL solution (20 μl/well) was added to the plate and the plate was shaken. The plate was incubated at RT for 1 hr before reading the plate on LJL using ratiometric method named HTRF.
(§6) 14.4. Coupled JNK 1, 2 and 3 TR-FRET Assay
(§7) (1) Assay buffer with 0.0025% Tween, 0.01% BSA, and 1 mM DTT was prepared using JNK buffer stock solution.
(§8) (2) Test compound solution preparation: 5× compound solution, including EDTA background, was prepared using assay buffer with 5% DMSO. The compound solution (10 μl/well) was added to a 384-well plate (Corning, Cat No. 3654).
(§9) (3) uJNK1,2, or 3 activation reaction preparation: uJNK activation solution was prepared using assay buffer (1.6 ng/ml MKK4, 1.6 ng/ml MKK7, 16 ng/ml uJNK, and 20 uM ATP final). The uJNK activation solution (35 μl/well) was added to the plate, the plate was shaken, and the reaction mixture was incubated with compound at 30° C. for 60 min. (4) c-Jun substrate solution preparation: 50 nM EPIW-1, c-Jun peptide, was prepared using assay buffer (15 nM final). The EPIW-1 solution (15 μl/well) was added to the plate, the plate was shaken and incubated at 30° C. for 60 min. (5) EDTA preparation: 30 mM EDTA was prepared using 0.5M EDTA stock and assay buffer. The EDTA (10 μl/well) was added to the plate to quench the enzyme reaction and the plate was shaken well. (6) Detection reagent preparation: Eu-73 and SA-XL stocks were thawed on ice. 4× Eu-73/SA-XL (2 nM Eu-73/9.4 nM SA-XL) were prepared using JNK detection buffer. The Eu-73/SA-XL solution (20 μl/well) was added to the plate. The plate was shaken and incubated at RT for 1 hr before reading the plate on LJL using ratiometric method named HTRF.

JNK1 = JNK1 (Homo sapiens (Human), UniProt P45983); assay: JNK1 TR-FRET kinase assay (Example 14)
Sequence of JNK1 (P45983 other isoform, or with tags, fused parts or gaps isoform P45983-2, species assumed): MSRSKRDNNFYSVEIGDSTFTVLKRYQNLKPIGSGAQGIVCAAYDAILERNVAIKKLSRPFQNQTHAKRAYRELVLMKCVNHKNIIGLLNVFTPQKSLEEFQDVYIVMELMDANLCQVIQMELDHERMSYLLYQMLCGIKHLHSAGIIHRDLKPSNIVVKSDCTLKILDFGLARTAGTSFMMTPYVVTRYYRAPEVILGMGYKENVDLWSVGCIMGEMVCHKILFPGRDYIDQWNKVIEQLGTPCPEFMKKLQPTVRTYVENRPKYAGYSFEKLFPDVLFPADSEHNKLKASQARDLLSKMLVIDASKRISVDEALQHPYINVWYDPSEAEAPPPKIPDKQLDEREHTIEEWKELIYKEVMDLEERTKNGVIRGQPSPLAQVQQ
Method: as §1, §2, §3, §4, §5, §6, §7, §8, §9

JNK2 = JNK2 (Homo sapiens (Human), UniProt P45984); assay: JNK2 TR-FRET kinase assay (Example 14)
Sequence of JNK2 (P45984 whole entry, species assumed): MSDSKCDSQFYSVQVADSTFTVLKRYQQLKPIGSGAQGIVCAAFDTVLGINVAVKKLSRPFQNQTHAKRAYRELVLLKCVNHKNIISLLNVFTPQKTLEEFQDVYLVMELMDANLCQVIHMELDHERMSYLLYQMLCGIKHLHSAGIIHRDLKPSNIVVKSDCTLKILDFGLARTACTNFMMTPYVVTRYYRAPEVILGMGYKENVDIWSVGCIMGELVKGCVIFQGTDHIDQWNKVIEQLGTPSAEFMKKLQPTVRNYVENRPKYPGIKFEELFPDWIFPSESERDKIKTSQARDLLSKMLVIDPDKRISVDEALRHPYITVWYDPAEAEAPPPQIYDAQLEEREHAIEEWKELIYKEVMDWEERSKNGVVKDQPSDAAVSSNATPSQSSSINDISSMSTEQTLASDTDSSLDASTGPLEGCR
Method: as §1, §2, §3, §4, §5, §6, §7, §8, §9

Sequence of JNK3 (P53779 whole entry, species assumed): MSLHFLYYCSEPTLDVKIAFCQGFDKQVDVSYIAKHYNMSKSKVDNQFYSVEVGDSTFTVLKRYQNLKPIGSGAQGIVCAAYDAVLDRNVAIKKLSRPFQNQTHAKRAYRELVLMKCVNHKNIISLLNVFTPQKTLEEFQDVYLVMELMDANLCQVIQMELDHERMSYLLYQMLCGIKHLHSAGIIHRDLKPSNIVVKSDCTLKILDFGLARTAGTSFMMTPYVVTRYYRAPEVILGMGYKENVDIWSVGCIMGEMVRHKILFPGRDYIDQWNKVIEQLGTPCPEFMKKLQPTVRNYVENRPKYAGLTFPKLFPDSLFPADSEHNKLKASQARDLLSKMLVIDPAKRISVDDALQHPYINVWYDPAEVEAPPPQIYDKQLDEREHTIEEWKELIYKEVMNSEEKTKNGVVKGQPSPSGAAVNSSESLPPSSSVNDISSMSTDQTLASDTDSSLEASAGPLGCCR

Row | Compound | IC50 (JNK3) [µM] | IC50 (JNK1) [µM] | IC50 (JNK2) [µM]
1 | Cc1nc(-c2sccc2NC(=O)Cc2cccc3ccccc23)n(C)n1 [N-(2-(1,3-dimethyl-1H-1,2,4-triazol-5-yl)thiophen-3-yl)-2-(naphthalen-1-yl)acetamide] | > 10 | > 10 | > 50
2 | Cn1ncnc1-c1sccc1NC(=O)Cc1cccc2ccccc12 [N-(2-(1-methyl-1H-1,2,4-triazol-5-yl)thiophen-3-yl)-2-(naphthalen-1-yl)acetamide] | > 50 | > 50 | > 50
3 | Cn1ccnc1-c1sccc1NC(=O)Cc1cccc2ccccc12 [N-(2-(1-methyl-1H-imidazol-2-yl)thiophen-3-yl)-2-(naphthalen-1-yl)acetamide] | > 10 | > 10 | > 50
4 | Cn1ccc(-c2sccc2NC(=O)Cc2cccc3ccccc23)n1 [N-(2-(1-methyl-1H-pyrazol-3-yl)thiophen-3-yl)-2-(naphthalen-1-yl)acetamide] | > 10 | > 10 | > 50
5 | COc1ccc(CC(=O)Nc2ccsc2-n2cncn2)cc1 [N-(2-(1H-1,2,4-triazol-1-yl)thiophen-3-yl)-2-(4-methoxyphenyl)acetamide] | > 10 | > 10 | > 50
6 | COc1ccc(CC(=O)Nc2ccsc2-c2ncn[nH]2)cc1 [N-(2-(1H-1,2,4-triazol-5-yl)thiophen-3-yl)-2-(4-methoxyphenyl)acetamide] | 0.1 to 10 | 0.1 to 10 | 0.1 to 10
7 | O=C(Cc1cccc2ccccc12)Nc1ccsc1-c1ncn[nH]1 [N-(2-(1H-1,2,4-triazol-5-yl)thiophen-3-yl)-2-(naphthalen-1-yl)acetamide] | 0.1 to 10 | 0.1 to 10 | 0.1 to 10
8 | O=C(Cc1cccc2ncccc12)Nc1ccsc1-c1nnc[nH]1 [N-(2-(1H-1,2,4-triazol-5-yl)thiophen-3-yl)-2-(quinolin-5-yl)acetamide] | 0.1 to 10 | 0.1 to 10 | 0.1 to 10
9 | O=C(Cc1cccc2ccccc12)Nc1ccsc1-n1ccnc1 [N-(2-(1H-imidazol-1-yl)thiophen-3-yl)2-(naphthalen-1-yl)acetamide] | 0.1 to 10 | > 10 | > 50
10 | O=C(CN1C(=O)CCc2ccccc21)Nc1ccsc1-c1c[nH]cn1 [N-(2-(1H-imidazol-4-yl)thiophen-3-yl)-2-(2-oxo-3,4-dihydroquinolin-1(2H)-yl)acetamide] | 0.1 to 10 | 0.1 to 10 | > 10
11 | COc1ccc(CC(=O)Nc2ccsc2-c2c[nH]cn2)cc1 [N-(2-(1H-imidazol-4-yl)thiophen-3-yl)-2-(4-methoxyphenyl)-acetamide] | > 10 | > 10 | > 50
12 | COc1ccc(CC(=O)Nc2ccsc2-n2cccn2)cc1 [N-(2-(1H-pyrazol-1-yl)thiophen-3-yl)-2-(4-methoxyphenyl)-acetamide] | > 10 | > 10 | > 50
13 | O=C(Cc1cccc2cnccc12)Nc1ccsc1-c1csc(Cl)n1 [N-(2-(2-chlorothiazol-4-yl)thiophen-3-yl)-2-(isoquinolin-5-yl)acetamide] | 0.1 to 10 | 0.1 to 10 | > 10
14 | Cc1nc(-c2sccc2NC(=O)CN2C(=O)CCc3ccccc32)c[nH]1 [N-(2-(2-methyl-1H-imidazol-4-yl)thiophen-3-yl)-2-(2-oxo-3,4-dihydroquinolin-1(2H)-yl)acetamide] | > 10 | > 10 | > 50
15 | COc1ccc(CC(=O)Nc2ccsc2-n2nccn2)cc1 [N-(2-(2H-1,2,3-triazol-2-yl)thiophen-3-yl)-2-(4-methoxyphenyl)acetamide] | 0.1 to 10 | 0.1 to 10 | 0.1 to 10
16 | COc1ccc(CC(=O)Nc2ccsc2-c2nc(C3CC3)n[nH]2)cc1 [N-(2-(3-cyclopropyl-1H-1,2,4-triazol-5-yl)thiophen-3-yl)-2-(4-methoxyphenyl)acetamide] | 0.1 to 10 | 0.1 to 10 | 0.1 to 10
17 | CCc1n[nH]c(-c2sccc2NC(=O)Cc2ccc(OC)cc2)n1 [N-(2-(3-ethyl-1H-1,2,4-triazol-5-yl)thiophen-3-yl)-2-(4-methoxyphenyl)acetamide] | 0.1 to 10 | 0.1 to 10 | 0.1 to 10
18 | Cc1n[nH]c(-c2sccc2NC(=O)Cc2cccc3ccccc23)n1 [N-(2-(3-methyl-1H-1,2,4-triazol-5-yl)thiophen-3-yl)-2-(naphthalen-1-yl)acetamide] | 0.1 to 10 | 0.1 to 10 | 0.1 to 10
19 | COc1ccc(CC(=O)Nc2ccsc2-c2nc(C(C)(C)C)n[nH]2)cc1 [N-(2-(3-tert-butyl-1H-1,2,4-triazol-5-yl)thiophen-3-yl)-2-(4-methoxyphenyl)acetamide] | 0.1 to 10 | 0.1 to 10 | > 10
20 | COc1ccc(CC(=O)Nc2ccsc2-c2nnc(C(C)C)o2)cc1 [N-(2-(5-isopropyl-1,3,4-oxadiazol-2-yl)thiophen-3-yl)-2-(4-methoxyphenyl)acetamide] | > 10 | > 10 | > 50
21 | Cc1nnc(-c2sccc2NC(=O)Cc2cccc3ccccc23)o1 [N-(2-(5-methyl-1,3,4-oxadiazol-2-yl)thiophen-3-yl)-2-(naphthalen-1-yl)acetamide] | 0.1 to 10 | 0.1 to 10 | > 10
22 | O=C(Cn1c(=O)ccc2cc(F)c(F)cc21)Nc1sccc1-c1ncon1 [N-(3-(1,2,4-oxadiazol-3-yl)thiophen-2-yl)-2-(6,7-difluoro-2-oxoquinolin-1(2H)-yl)acetamide] | 0.1 to 10 | < 0.1 | 0.1 to 10
23 | COCn1nnnc1-c1ccsc1NC(=O)Cc1ccc(OC)cc1 [N-(3-(1-(methoxymethyl)-1H-tetrazol-5-yl)thiophen-2-yl)-2-(4-methoxyphenyl)acetamide] | 0.1 to 10 | 0.1 to 10 | > 50
24 | O=C(CN1C(=O)CCc2ccccc21)Nc1sccc1-c1ncn[nH]1 [N-(3-(1H-1,2,4-triazol-5-yl)thiophen-2-yl)-2-(2-oxo-3,4-dihydroquinolin-1(2H)-yl)acetamide] | 0.1 to 10 | < 0.1 | 0.1 to 10
25 | N#Cc1csc(NC(=O)Cn2c(=O)ccc3cc(C(F)(F)F)ccc32)c1-n1nnc2ccccc21 [N-(3-(1H-benzo[d][1,2,3]triazol-1-yl)-4-cyanothiophen-2-yl)-2-(2-oxo-6-(trifluoromethyl)quinolin-1(2H)-yl)acetamide] | 0.1 to 10 | 0.1 to 10 | 0.1 to 10
26 | COCn1nnc(-c2ccsc2NC(=O)Cc2ccc(OC)cc2)n1 [N-(3-(2-(methoxymethyl)-2H-tetrazol-5-yl)thiophen-2-yl)-2-(4-methoxyphenyl)acetamide] | > 50 | > 50 | > 50
27 | N#Cc1csc(NC(=O)CN2C(=O)CCc3ncccc32)c1-c1nc2ccccc2s1 [N-(3-(benzo[d]thiazol-2-yl)-4-cyanothiophen-2-yl)-2-(2-oxo-3,4-dihydro-1,5-naphthyridin-1(2H)-yl)acetamide] | 0.1 to 10 | 0.1 to 10 | 0.1 to 10
28 | Cc1csc(NC(=O)Cc2cccc3cnccc23)c1-c1nc2ccccc2s1 [N-(3-(benzo[d]thiazol-2-yl)-4-methylthiophen-2-yl)-2-(isoquinolin-5-yl)acetamide] | 0.1 to 10 | 0.1 to 10 | > 10
29 | O=C(Cc1cccc2cnccc12)Nc1scnc1-c1cscn1 [N-(4,4′-bithiazol-5-yl)-2-(isoquinolin-5-yl)acetamide] | < 0.1 | < 0.1 | 0.1 to 10
